Consider 1 substance from US11963996B2, “Method of treating knee pain” (ORTHOTROPHIX, Inc., priority 2018, dated 2024).

The test system of data set [1] is subjects with bilateral patello-femoral knee osteoarthritis. Briefly: Same study: MRI-based periarticular bone area and 3D bone shape (AAM, B Score). In kind it is in vivo, human. An excerpt: The 3D bone shape change can be quantified using active appearance modelling (AAM). AAM enables encoding of the 3D shape and appearance of an object using multiple anchor points (“principal components”) on the surface of the object. These principal components describe computationally the specific 3D shape of the object. The use of AAM to represent femur, tibia, and patella shapes has been described in detail by Neogi, et. al. (Neogi 2013).
The MRI images of each knee used in cartilage thickness measurement were used to measure surface area of the periarticular bone in lateral and medial femur, lateral and medial trochlear femur, lateral and medial tibia, as well as lateral and medial patella. Bone shape scores in femur, trochlear femur, tibia, and patella were also measured using the same MRI images.
All KOOS subscale scores, WOMAC Total score and subscale scores, MRI-based patello-femoral and tibiofemoral cartilage thickness, and MRI-based periarticular bone area and 3D bone shape were analyzed.
MRI images were provided to central readers cartilage and periarticular bone measures. Central readers were blind as to treatment assignment.
Bone area and 3D shape of periarticular bone were analyzed using AAM software developed by iMorphics (www.imorphics.com) specifically for assessing these parameters in the osteoarthritic knee.
Statistical analyses were carried out using a two-sided paired t-test at the 5% level of significance. The outcome variables were the differences of the change of the score of each subscale of KOOS, change of cartilage thickness, periarticular bone area, and 3D bone shape score (“B Score”) change from baseline to 6 and 12 months in the treated knee (“Index Knee”) compared with the placebo-exposed knee (“Control Knee”).
Change in periarticular bone area and 3D bone shape as measured by MRI was also compared between Index and Control Knee groups. It should be noted that there were eight subjects whose MRI images were of insufficient quality and were excluded from bone area and shape analyses. Therefore, each evaluable treatment arm consisted of 85 knees.

For data set [2] the test system is unchanged. Briefly: Example 2: re-analysis of the study with stricter MRI image qualification (79 subjects). In kind it is in vivo, human. The method, then:
After the data analyses in EXAMPLE 1, a few more MRI images were questioned with regard to their technical quality to enable assessment of periarticular bone shape change over time. In order to assure the quality of the overall analysis results, a stricter qualification standard was applied to the MRI images used in EXAMPLE 1, and requalification was performed. Seventy-nine (79) subjects were requalified. The MRI knee images of these subjects were re-analyzed for their periarticular bone shape changes, as well as their correlations with the changes of tibiofemoral cartilage thickness and pain, respectively, in the same manner as described in EXAMPLE 1.
The requalified 79 subjects were included in the efficacy analysis per the Statistical Analysis Plan.

The next data set concerns healthy volunteers. Briefly: GLP toxicology studies and Phase 1 clinical study with healthy volunteers. The note with it: human, in vivo. The text has this: In non-clinical safety and efficacy studies, TPX-100 was first tested for its bone formation activity.
The next data set has as its system alveolar bone. Briefly: Phase 2 study of alveolar bone formation. The note with it: drug vs placebo. It is filed as in vivo, human. As to the method: Based on these safety and bone and dentin formation data, TPX-100 was tested in two Phase 2 studies for alveolar bone and dentin formation activities, respectively.
Data set [3] has as its system cultured neonatal mouse calvaria. The note with it: cited from earlier work.
A further data set deals with rat long bone fracture. The note with it: cited from earlier work.
The test system of a further data set is defects in human molar. The note with it: in vivo; cited from earlier work.
Where [4] appears, read: Example 2, 79 requalified subjects, Index vs Control knees, 6 or 12 month, or both.
The mark [5] stands for this setting: Example 2, Index vs Control Knees, 12 months.

Entries after “also recorded” stand apart in the source; their conditions may differ.

Regarding “TPX-100: synthetic peptide consisting of 23 amino acids, TDLQERGDNDISPFSGDGQPFKD, derived from human Matrix Extracellular Phosphoglycoprotein (MEPE)”, in data set [1] (Index Knees, first 6 months), the “Mean bone shape change rate” value is given as 0.03; the “Periarticular bone area change, lateral femur, lateral patella and medial patella” value is reported as “nearly zero in all regions”. In data set [1] (Index vs Control Knees, 6 and 12 months (p=0.005 and 0.007)), the “3D periarticular bone shape change of femur (B score)” value is on record as “statistically significant decrease in shape change compared to Control Knees; also recorded: statistically significant (p<0.05) difference in favor of Index Knees”. The “Periarticular bone area increase, medial femur” value in data set [1] (Index vs Control Knees, 6 months) is given as “less periarticular bone area increase as compared to Control Knees at 6 months, with a trend toward statistical significance (p=0.08); also recorded: less pathological bone area increase as compared to Control Knee at 6 months, with a trend toward statistical significance (p=0.08)”. Also, the “Periarticular bone area increase, lateral femur, lateral and medial patella” value in data set [1] (Index vs Control Knees, 12 months) is listed as “slower increase at 12 months compared with Control Knees”. Besides, the “3D periarticular bone shape changes in tibia and patella” value in data set [1] (Index vs Control Knees, no statistically significant difference) is reported as “slower changes in Index Knees as compared to Control Knees”. Moreover, in data set [1] (responders, through 12 months), the “3D bone shape change of patella in pain frequency responder group” value is “remained approximately zero through 12 months; also recorded: eventually no change in the 3D bone shape in patella”. Also, in data set [2] (setting [4]), the “KOOS ADL improvement” value was “clinically meaningful and statistically significant (p<0.05) improvements”; the “KOOS Knee-related QOL improvement” value is “clinically meaningful and statistically significant (p<0.05) improvements”; the “WOMAC Function improvement” value is “clinically meaningful and statistically significant (p<0.05) improvements”. For the same substance, in data set [2] (Example 2, Index vs Control Knees, 6 and 12 months), the “3D periarticular femur bone shape change (bone shape score)” value is reported as “statistically significant (p<0.05) delay of femur bone shape change”. For the same substance, in data set [2] (setting [5]), the “KOOS Pain subscale improvement” value is recorded as “clinically meaningful improvement in Index Knees with a trend towards statistical significance (p<0.09)”, the “Pain bending knee fully (KOOS Pain question)” value was “significantly improved (p<0.05)”, the “Pain frequency (KOOS Pain question)” value is given as “significantly improved (p<0.05)” and the “Pain going up or down stairs (KOOS Pain question)” value is on record as “significantly improved (p<0.05)”. Moreover, in data set [2] (Example 2, responders), the “3D bone shape change in patella in pain frequency responders” value is recorded as “eventually no change in the 3D bone shape in patella”. Further, the “Pain frequency in responders, baseline to 12 months” value in data set [2] (Example 2, responders to TPX-100) is listed as “decreased from daily pain at baseline to semi-monthly pain at 12 months”. The “Safety in GLP toxicology studies and Phase 1 study” value with healthy volunteers is listed as “Safety of the TPX-100 peptide was further confirmed”. Further, the Alveolar bone formation entry with alveolar bone is recorded as “did not show a difference between drug vs. placebo-exposed groups”. In addition, the “Bone formation activity in calvaria culture” value in data set [3] is “thickening of cultured neonatal mouse calvaria”. In addition, the “Tolerability in in vivo bone formation and dentin formation studies” value in the data set on rat long bone fracture (rat bone formation and dentin formation studies) is “well tolerated”. In addition, in the data set with rat long bone fracture (subcutaneous injection), the Bone fracture healing entry was “acceleration of bone fracture healing”. For the same substance, the “Dentin formation in defects in human molar” value with defects in human molar was “reparative dentin formation”.
